Columns and labels:
[1] = test system: Pyricularia oryzae; test: whole plant or invertebrate; assay type: in vivo; conditions: for rank (control effect, protective value from lesion number): 100 ppm spray, rice seedling (Jikkoku) 4-leaf stage, lesion number on fourth leaf 6 days after inoculation; for pest or weed control at 100 ppm: Pyricularia oryzae, foliar, 144 h, read-out: rank (control effect, protective value from lesion number)
[2] = test system: Sphaerotheca fuliginea; test: Test for control effect against powdery mildew of Cucurbitaceae (spray on cucumber seedlings); assay type: in vivo; conditions: 200 ppm spray, cucumber first foliage leaf, 10 days after inoculation
Text: Test for Control Effect Against Powdery Mildew of Cucurbitaceae
A spray liquid comprising a test compound whose concentration was adjusted to be 200 ppm by dilution with water was sprayed to a cucumber grown in a vinyl pot of 3 cm in diameter when its first foliage leaf was developed. The air-dried cucumber seedling was inoculated with a conidium suspension of Sphaerotheca fuliginea. Thereafter, the cucumber seedling was transferred in an air-conditioned greenhouse. 10 Days after the inoculation, the disease severity was observed. The protective value was calculated by comparing the disease severity in a treated area with that in an untreated area. Then, control effect was ranked according to the following criterion.
B; protective value 50 to 79%

SMILES	rank (control effect, protective value from lesion number) [1]	rank (control effect, protective value from disease severity) [2]	pest or weed control at 100 ppm [1] [%]
CCC(C)c1ccc2nc(C)c(C)c(OC(=O)C3CCCCC3)c2c1 (centres unmarked) [compound 170]	A (protective value ≧80%)	–	–
CCC(C)c1ccc2nc(C)c(C)c(OC(=O)CC(C)C)c2c1 (centres unmarked) [compound 176]	–	A (protective value ≧80%)	–
CCC(C)c1ccc2nc(C)c(C)c(OC(=O)N(C)C)c2c1 (centres unmarked) [compound 71]	–	A (protective value ≧80%)	–
CC(=O)Oc1c(C)c(C)nc2c(C)cc(F)cc12 [compound 198]	B (protective value 50 to 79%)	–	–
CC(=O)Oc1c(C)c(C)nc2c(C(C)C)cc(C(C)C)cc12 [Compound No. 274]	A (protective value ≧80%)	–	–
CCc1cc(C(C)CC)cc2c(OC(C)=O)c(C)c(C)nc12 (racemic) [Compound No. 348]	A (protective value ≧80%)	A (protective value ≧80%)	–
CCC(C)c1ccc2nc3c(c(OC(C)=O)c2c1)CCC3 (centres unmarked) [Compound No. 153]	B (protective value 50 to 79%)	A (protective value ≧80%)	–
CCCCCc1ccc2nc(C)c(C)c(O)c2c1 [Compound No. 97, 4-hydroxy-2,3-dimethyl-6-n-pentyl-quinoline]	–	–	50 to 79
CCCCc1ccc2nc(C)c(CC)c(OC(C)=O)c2c1 [compound 44]	A (protective value ≧80%)	–	–
CCC(C)c1ccc2nc(C)c(C)c(OC(=O)Oc3ccccc3)c2c1 (centres unmarked) [compound 68]	A (protective value ≧80%)	A (protective value ≧80%)	–
CC(=O)Oc1c(C)c(C)nc2ccc(C(C)(C)C)cc12 [compound 84]	A (protective value ≧80%)	–	–
Cc1nc2ccc(C3CCCCC3)cc2c(O)c1C [Compound No. 111]	B (protective value 50 to 79%)	–	–
CCCCc1ccc2nc(C)c(CCC)c(OC(C)=O)c2c1 [compound 45]	A (protective value ≧80%)	B (protective value 50 to 79%)	–
CCC(C)c1cc(CO)c2nc(C)c(C)c(OC(C)=O)c2c1 (centres unmarked) [Compound No. 340, 4-acetoxy-6-s-butyl-8-hydroxymethyl-2,3-dimethylquinoline]	–	A (protective value ≧80%)	> 80
CCCc1ccc2nc(C)c(C)c(O)c2c1 [Compound No. 13]	A (protective value ≧80%)	–	–
CCCCc1cc(Br)c2nc(C)c(C)c(O)c2c1 [compound 186]	B (protective value 50 to 79%)	–	–
Cc1nc2ccc(CC(C)C)cc2c(O)c1C [compound 92]	B (protective value 50 to 79%)	–	–
Cc1nc2ccc(Br)c(C)c2c(O)c1C [compound 191]	A (protective value ≧80%)	–	–
CCCCc1ccc2nc(CCC)c(C)c(OC(C)=O)c2c1 [compound 48]	A (protective value ≧80%)	–	–
CCCCCCCC(=O)Oc1c(C)c(C)nc2ccc(C(C)CC)cc12 (centres unmarked) [compound 180]	A (protective value ≧80%)	–	–

SMILES	rank (control effect, protective value from lesion number) [1]	rank (control effect, protective value from disease severity) [2]	pest or weed control at 100 ppm [1] [%]
CCCc1ccc2nc(C)c(C)c(OC(C)=O)c2c1 [compound 14]	A (protective value ≧80%)	–	–
CCCCCCCCc1ccc2nc(C)c(C)c(OC(C)=O)c2c1 [Compound No. 126]	A (protective value ≧80%)	–	–
CC=C(C)c1ccc2nc(C)c(C)c(O)c2c1 [compound 199]	A (protective value ≧80%)	–	–
CC=C(C)c1cc(C)c2nc(C)c(C)c(OC(C)=O)c2c1 [Compound No. 360, 4-acetoxy-6-(2-buten-2-yl)-2,3,8-trimethylquinoline]	–	–	> 80
CC(=O)Oc1c(C)c(C)nc2cc(C)c(Br)cc12 [compound 196]	–	A (protective value ≧80%)	–
CCC(C)c1ccc2nc(C)c(C)c(OC(=O)c3ccc(Cl)cc3)c2c1 (centres unmarked) [compound 63]	A (protective value ≧80%)	–	–
CC(=O)Oc1c(C)c(C)nc2c(C)cc(C3CCCC3)cc12 [Compound No. 352, 4-Acetoxy-6-c-pentyl-8-methyl-2,3-dimethylquinoline]	A (protective value ≧80%)	–	–
Cc1nc2ccc(C(F)(F)F)cc2c(O)c1C [Compound No. 131]	B (protective value 50 to 79%)	–	–
CCCCCCCCc1ccc2nc(C)c(C)c(O)c2c1 [Compound No. 125]	B (protective value 50 to 79%)	–	–
CCC(C)c1cc(C)c2nc(C)c(C)c(OC(C)=O)c2c1 (centres unmarked) [Compound No. 206, 4-acetoxy-6-s-butyl-2,3,8-trimethylquinoline]	–	–	> 80
CCc1cccc2nc(C)c(C)c(OC(C)=O)c12 [compound 182]	B (protective value 50 to 79%)	–	–
CCc1ccc2c(OC(C)=O)c(C)c(C)nc2c1 [compound 183]	B (protective value 50 to 79%)	–	–
CC(=O)Oc1c(C)c(C)nc2c(C)cc(C)cc12 [Compound No. 262]	B (protective value 50 to 79%)	–	–
CCC(C)c1ccc2nc(C)c(C)c(OC(=O)Oc3ccc(Cl)cc3)c2c1 (centres unmarked) [compound 70]	A (protective value ≧80%)	–	–
CCC(C)c1cc(OC)c2nc(C)c(C)c(OC(C)=O)c2c1 (centres unmarked) [Compound No. 220, 4-acetoxy-6-s-butyl-8-methoxy-2,3-dimethylquinoline]	–	–	> 80
CCc1ccc2nc(C)c(C)c(O)c2c1 [Compound No. 9]	A (protective value ≧80%)	–	–
Cc1nc2ccc(OC(C)C)cc2c(O)c1C [compound 23]	B (protective value 50 to 79%)	–	–
C=CCC(=O)Oc1c(C)c(C)nc2ccc(C(C)CC)cc12 (centres unmarked) [compound 175]	–	A (protective value ≧80%)	–
CCCCc1ccc2nc(CCCC)c(C)c(OC(C)=O)c2c1 [compound 49]	A (protective value ≧80%)	–	–
CCCCOC(=O)Oc1c(C)c(C)nc2ccc(C(C)CC)cc12 (centres unmarked) [compound 179]	A (protective value ≧80%)	–	–

SMILES	rank (control effect, protective value from lesion number) [1]	rank (control effect, protective value from disease severity) [2]	pest or weed control at 100 ppm [1] [%]
Cc1nc2ccc(C(C)(C)C)cc2c(O)c1C [compound 83]	A (protective value ≧80%)	–	–
Cc1nc2c(C)cc(Br)cc2c(O)c1C [compound 190]	B (protective value 50 to 79%)	–	–
CCCCCCc1ccc2nc(C)c(C)c(O)c2c1 [Compound No. 107]	A (protective value ≧80%)	–	–
CC=C(C)c1cc(F)c2nc(C)c(C)c(OC(C)=O)c2c1 [Compound No. 362, 4-acetoxy-6-(2-buten-2-yl)-8-fluoro-2,3-dimethylquinoline]	–	–	> 80
CCC(C)c1ccc2nc(C)c(C)c(OC(=O)Cc3ccccc3)c2c1 (centres unmarked) [compound 172]	A (protective value ≧80%)	–	–
CCC(C)c1ccc2nc(C)c(C)c(O)c2c1 (centres unmarked) [compound 54]	A (protective value ≧80%)	–	–
CCCCc1ccc2nc(CC)c(C)c(OC(C)=O)c2c1 [compound 47]	A (protective value ≧80%)	–	–
CCC(C)c1ccc2nc(C)c(C)c(OC(=O)c3ccc(OC)cc3)c2c1 (centres unmarked) [compound 62]	A (protective value ≧80%)	–	–
CC=C(C)c1ccc2nc(C)c(C)c(OC(C)=O)c2c1 [compound 200]	A (protective value ≧80%)	–	–
CCC(C)c1cc(F)c2nc(C)c(C)c(OC(C)=O)c2c1 (centres unmarked) [Compound No. 212, 4-acetoxy-6-s-butyl-8-fluoro-2,3-dimethylquinoline]	–	–	> 80
Cc1nc2c(F)cc(Br)cc2c(O)c1C [compound 193]	A (protective value ≧80%)	–	–
CC(=O)Oc1c(C)c(C)nc2ccc(C)cc12 [Compound No. 2]	B (protective value 50 to 79%)	–	–
CCC(C)c1ccc2nc(C)c(C)c(OC(=O)c3ccc([N+](=O)[O-])cc3)c2c1 (centres unmarked) [compound 171]	B (protective value 50 to 79%)	–	–
CCCCCc1ccc2nc(C)c(C)c(OC(C)=O)c2c1 [Compound No. 98, 4-acetoxy-2,3-dimethyl-6-n-pentyl-quinoline]	–	–	> 80
CCC(C)c1ccc2nc(C)c(C)c(OC(=O)Oc3ccc(OC)cc3)c2c1 (centres unmarked) [compound 69]	A (protective value ≧80%)	–	–
CCC(C)c1ccc2nc(C)c(C)c(OC(=O)C3CC3)c2c1 (centres unmarked) [compound 57]	A (protective value ≧80%)	–	–
CCCCCC(=O)Oc1c(C)c(C)nc2ccc(C(C)CC)cc12 (centres unmarked) [compound 173]	A (protective value ≧80%)	–	–
CCCCc1ccc2nc(C)c(CCCC)c(OC(C)=O)c2c1 [compound 46]	A (protective value ≧80%)	–	–
Cc1cc2nc(C)c(C)c(O)c2cc1Br [compound 192]	A (protective value ≧80%)	–	–
CCCCCCc1ccc2nc(C)c(C)c(OC(C)=O)c2c1 [Compound No. 108]	A (protective value ≧80%)	–	–

From patent US6680282B2 (priority 1997, dated 2004)
